Source: ChEMBL document CHEMBL3217532, “New analyses of MIC90 data to aid antibacterial drug discovery” (2011)
Converted amounts (≈) assume the structure as drawn.

The molecules below were run on Pseudomonas aeruginosa (assay: Antimicrobial activity against Pseudomonas aeruginosa 1957-00).
Format: functional

Row | MIC90 [µg/mL] | SMILES
1 | 0.03 (≈ 0.0412 µM) | C[C@H]1[C@H](NC(=O)/C(=N\OC(C)(C)C(=O)O)c2csc(N)n2)C(=O)N1C(=O)NS(=O)(=O)n1nc(-c2cc(=O)c(O)c[nH]2)n(C[C@@H](O)CO)c1=O

What follows are molecules tested on Pseudomonas aeruginosa (assay: Antimicrobial activity against Pseudomonas aeruginosa 1768-00).
Format: functional

Row | MIC90 [µg/mL] | SMILES
2 | 0.06 (≈ 0.0823 µM) | C[C@H]1[C@H](NC(=O)/C(=N\OC(C)(C)C(=O)O)c2csc(N)n2)C(=O)N1C(=O)NS(=O)(=O)n1nc(-c2cc(=O)c(O)c[nH]2)n(C[C@@H](O)CO)c1=O

These molecules were tested on Pseudomonas aeruginosa (assay: Antimicrobial activity against Pseudomonas aeruginosa 1562-05).
Format: functional

Row | MIC90 [µg/mL] | SMILES
3 | 0.06 (≈ 0.0823 µM) | C[C@H]1[C@H](NC(=O)/C(=N\OC(C)(C)C(=O)O)c2csc(N)n2)C(=O)N1C(=O)NS(=O)(=O)n1nc(-c2cc(=O)c(O)c[nH]2)n(C[C@@H](O)CO)c1=O

These molecules were tested on Pseudomonas aeruginosa (assay: Antimicrobial activity against Pseudomonas aeruginosa 1753-00).
Format: functional

Row | MIC90 [µg/mL] | SMILES
4 | 0.125 (≈ 0.172 µM) | C[C@H]1[C@H](NC(=O)/C(=N\OC(C)(C)C(=O)O)c2csc(N)n2)C(=O)N1C(=O)NS(=O)(=O)n1nc(-c2cc(=O)c(O)c[nH]2)n(C[C@@H](O)CO)c1=O

Each molecule was assayed on Pseudomonas aeruginosa (assay: Antimicrobial activity against Pseudomonas aeruginosa PA-1757).
Format: functional

Row | MIC90 [µg/mL] | SMILES
5 | 4 (≈ 5.49 µM) | C[C@H]1[C@H](NC(=O)/C(=N\OC(C)(C)C(=O)O)c2csc(N)n2)C(=O)N1C(=O)NS(=O)(=O)n1nc(-c2cc(=O)c(O)c[nH]2)n(C[C@@H](O)CO)c1=O

The molecules below were run on Pseudomonas aeruginosa (assay: Antimicrobial activity against Pseudomonas aeruginosa 1568-05).
Format: functional

Row | MIC90 [µg/mL] | SMILES
6 | 0.125 (≈ 0.172 µM) | C[C@H]1[C@H](NC(=O)/C(=N\OC(C)(C)C(=O)O)c2csc(N)n2)C(=O)N1C(=O)NS(=O)(=O)n1nc(-c2cc(=O)c(O)c[nH]2)n(C[C@@H](O)CO)c1=O

What follows are molecules tested on Pseudomonas aeruginosa (assay: Antimicrobial activity against Pseudomonas aeruginosa 1954-00).
Format: functional

Row | MIC90 [µg/mL] | SMILES
7 | 0.015 (≈ 0.0206 µM) | C[C@H]1[C@H](NC(=O)/C(=N\OC(C)(C)C(=O)O)c2csc(N)n2)C(=O)N1C(=O)NS(=O)(=O)n1nc(-c2cc(=O)c(O)c[nH]2)n(C[C@@H](O)CO)c1=O

These molecules were tested on Pseudomonas aeruginosa (assay: Antimicrobial activity against Pseudomonas aeruginosa 1565-05).
Format: functional

Row | MIC90 [µg/mL] | SMILES
8 | 0.25 (≈ 0.343 µM) | C[C@H]1[C@H](NC(=O)/C(=N\OC(C)(C)C(=O)O)c2csc(N)n2)C(=O)N1C(=O)NS(=O)(=O)n1nc(-c2cc(=O)c(O)c[nH]2)n(C[C@@H](O)CO)c1=O

Each molecule was assayed on Pseudomonas aeruginosa (assay: Antimicrobial activity against Pseudomonas aeruginosa 1612-09).
Format: functional

Row | MIC90 [µg/mL] | SMILES
9 | 0.25 (≈ 0.343 µM) | C[C@H]1[C@H](NC(=O)/C(=N\OC(C)(C)C(=O)O)c2csc(N)n2)C(=O)N1C(=O)NS(=O)(=O)n1nc(-c2cc(=O)c(O)c[nH]2)n(C[C@@H](O)CO)c1=O

These molecules were tested on Pseudomonas aeruginosa (assay: Antimicrobial activity against Pseudomonas aeruginosa 1764-00).
Format: functional

Row | MIC90 [µg/mL] | SMILES
10 | 0.06 (≈ 0.0823 µM) | C[C@H]1[C@H](NC(=O)/C(=N\OC(C)(C)C(=O)O)c2csc(N)n2)C(=O)N1C(=O)NS(=O)(=O)n1nc(-c2cc(=O)c(O)c[nH]2)n(C[C@@H](O)CO)c1=O

What follows are molecules tested on Pseudomonas aeruginosa (assay: Antimicrobial activity against Pseudomonas aeruginosa 1512-08).
Format: functional

Row | MIC90 [µg/mL] | SMILES
11 | 0.125 (≈ 0.172 µM) | C[C@H]1[C@H](NC(=O)/C(=N\OC(C)(C)C(=O)O)c2csc(N)n2)C(=O)N1C(=O)NS(=O)(=O)n1nc(-c2cc(=O)c(O)c[nH]2)n(C[C@@H](O)CO)c1=O

The molecules below were run on Pseudomonas aeruginosa (assay: Antimicrobial activity against Pseudomonas aeruginosa 1956-00).
Format: functional

Row | MIC90 [µg/mL] | SMILES
12 | 0.03 (≈ 0.0412 µM) | C[C@H]1[C@H](NC(=O)/C(=N\OC(C)(C)C(=O)O)c2csc(N)n2)C(=O)N1C(=O)NS(=O)(=O)n1nc(-c2cc(=O)c(O)c[nH]2)n(C[C@@H](O)CO)c1=O

These molecules were tested on Pseudomonas aeruginosa (assay: Antimicrobial activity against Pseudomonas aeruginosa 1613-09).
Format: functional

Row | MIC90 [µg/mL] | SMILES
13 | 0.25 (≈ 0.343 µM) | C[C@H]1[C@H](NC(=O)/C(=N\OC(C)(C)C(=O)O)c2csc(N)n2)C(=O)N1C(=O)NS(=O)(=O)n1nc(-c2cc(=O)c(O)c[nH]2)n(C[C@@H](O)CO)c1=O

The molecules below were run on Pseudomonas aeruginosa (assay: Antimicrobial activity against Pseudomonas aeruginosa 1566-05).
Format: functional

Row | MIC90 [µg/mL] | SMILES
14 | 0.06 (≈ 0.0823 µM) | C[C@H]1[C@H](NC(=O)/C(=N\OC(C)(C)C(=O)O)c2csc(N)n2)C(=O)N1C(=O)NS(=O)(=O)n1nc(-c2cc(=O)c(O)c[nH]2)n(C[C@@H](O)CO)c1=O

The molecules below were run on Pseudomonas aeruginosa (assay: Antimicrobial activity against Pseudomonas aeruginosa 1523-08).
Format: functional

Row | MIC90 [µg/mL] | SMILES
15 | 0.125 (≈ 0.172 µM) | C[C@H]1[C@H](NC(=O)/C(=N\OC(C)(C)C(=O)O)c2csc(N)n2)C(=O)N1C(=O)NS(=O)(=O)n1nc(-c2cc(=O)c(O)c[nH]2)n(C[C@@H](O)CO)c1=O

What follows are molecules tested on Pseudomonas aeruginosa (assay: Antimicrobial activity against Pseudomonas aeruginosa 1563-00).
Format: functional

Row | MIC90 [µg/mL] | SMILES
16 | 0.06 (≈ 0.0823 µM) | C[C@H]1[C@H](NC(=O)/C(=N\OC(C)(C)C(=O)O)c2csc(N)n2)C(=O)N1C(=O)NS(=O)(=O)n1nc(-c2cc(=O)c(O)c[nH]2)n(C[C@@H](O)CO)c1=O

The molecules below were run on Pseudomonas aeruginosa (assay: Antimicrobial activity against Pseudomonas aeruginosa 1510-08).
Format: functional

Row | MIC90 [µg/mL] | SMILES
17 | 1 (≈ 1.37 µM) | C[C@H]1[C@H](NC(=O)/C(=N\OC(C)(C)C(=O)O)c2csc(N)n2)C(=O)N1C(=O)NS(=O)(=O)n1nc(-c2cc(=O)c(O)c[nH]2)n(C[C@@H](O)CO)c1=O

The molecules below were run on Pseudomonas aeruginosa (assay: Antimicrobial activity against Pseudomonas aeruginosa 1570-05).
Format: functional

Row | MIC90 [µg/mL] | SMILES
18 | 0.25 (≈ 0.343 µM) | C[C@H]1[C@H](NC(=O)/C(=N\OC(C)(C)C(=O)O)c2csc(N)n2)C(=O)N1C(=O)NS(=O)(=O)n1nc(-c2cc(=O)c(O)c[nH]2)n(C[C@@H](O)CO)c1=O

Each molecule was assayed on Pseudomonas aeruginosa (assay: Antimicrobial activity against Pseudomonas aeruginosa 1615-09).
Format: functional

Row | MIC90 [µg/mL] | SMILES
19 | 0.25 (≈ 0.343 µM) | C[C@H]1[C@H](NC(=O)/C(=N\OC(C)(C)C(=O)O)c2csc(N)n2)C(=O)N1C(=O)NS(=O)(=O)n1nc(-c2cc(=O)c(O)c[nH]2)n(C[C@@H](O)CO)c1=O

The molecules below were run on Pseudomonas aeruginosa (assay: Antimicrobial activity against Pseudomonas aeruginosa 1766-00).
Format: functional

Row | MIC90 [µg/mL] | SMILES
20 | 2 (≈ 2.74 µM) | C[C@H]1[C@H](NC(=O)/C(=N\OC(C)(C)C(=O)O)c2csc(N)n2)C(=O)N1C(=O)NS(=O)(=O)n1nc(-c2cc(=O)c(O)c[nH]2)n(C[C@@H](O)CO)c1=O

What follows are molecules tested on Pseudomonas aeruginosa (assay: Antimicrobial activity against Pseudomonas aeruginosa 1514-08).
Format: functional

Row | MIC90 [µg/mL] | SMILES
21 | 0.25 (≈ 0.343 µM) | C[C@H]1[C@H](NC(=O)/C(=N\OC(C)(C)C(=O)O)c2csc(N)n2)C(=O)N1C(=O)NS(=O)(=O)n1nc(-c2cc(=O)c(O)c[nH]2)n(C[C@@H](O)CO)c1=O

The molecules below were run on Pseudomonas aeruginosa (assay: Antimicrobial activity against Pseudomonas aeruginosa PA-4995).
Format: functional

Row | MIC90 [µg/mL] | SMILES
22 | 0.03 (≈ 0.0412 µM) | C[C@H]1[C@H](NC(=O)/C(=N\OC(C)(C)C(=O)O)c2csc(N)n2)C(=O)N1C(=O)NS(=O)(=O)n1nc(-c2cc(=O)c(O)c[nH]2)n(C[C@@H](O)CO)c1=O

The molecules below were run on Pseudomonas aeruginosa (assay: Antimicrobial activity against Pseudomonas aeruginosa 1619-08).
Format: functional

Row | MIC90 [µg/mL] | SMILES
23 | 0.015 (≈ 0.0206 µM) | C[C@H]1[C@H](NC(=O)/C(=N\OC(C)(C)C(=O)O)c2csc(N)n2)C(=O)N1C(=O)NS(=O)(=O)n1nc(-c2cc(=O)c(O)c[nH]2)n(C[C@@H](O)CO)c1=O

What follows are molecules tested on Pseudomonas aeruginosa (assay: Antimicrobial activity against Pseudomonas aeruginosa 1761-00).
Format: functional

Row | MIC90 [µg/mL] | SMILES
24 | 0.5 (≈ 0.686 µM) | C[C@H]1[C@H](NC(=O)/C(=N\OC(C)(C)C(=O)O)c2csc(N)n2)C(=O)N1C(=O)NS(=O)(=O)n1nc(-c2cc(=O)c(O)c[nH]2)n(C[C@@H](O)CO)c1=O

What follows are molecules tested on Pseudomonas aeruginosa (assay: Antimicrobial activity against Pseudomonas aeruginosa 1561-05).
Format: functional

Row | MIC90 [µg/mL] | SMILES
25 | 0.5 (≈ 0.686 µM) | C[C@H]1[C@H](NC(=O)/C(=N\OC(C)(C)C(=O)O)c2csc(N)n2)C(=O)N1C(=O)NS(=O)(=O)n1nc(-c2cc(=O)c(O)c[nH]2)n(C[C@@H](O)CO)c1=O

Each molecule was assayed on Pseudomonas aeruginosa (assay: Antimicrobial activity against Pseudomonas aeruginosa 1951-00).
Format: functional

Row | MIC90 [µg/mL] | SMILES
26 | 0.125 (≈ 0.172 µM) | C[C@H]1[C@H](NC(=O)/C(=N\OC(C)(C)C(=O)O)c2csc(N)n2)C(=O)N1C(=O)NS(=O)(=O)n1nc(-c2cc(=O)c(O)c[nH]2)n(C[C@@H](O)CO)c1=O
